Test system: Wildtype (WT) mice fed high-fat chow
Assay: Diet-induced obesity, wildtype mice on high-fat chow, 12 weeks
Format: in vivo, mouse
Method: (G) At the end of treatment, quadriceps muscles were isolated and exposed ex vivo to either 10 mM glucose or 1 mM palmitate-BSA in the presence of 1×/min electrical stimulation. […] Curves depict interquartile range and single values; histograms depict single values and mean±s.e.m.; n=10 mice/group in A-E; n=3 mice/group in F-H. *, P<0.05 vs same-diet vehicle control, 1-way ANOVA with Tukey's multi-comparison; #, P<0.05 vs vehicle, 2-way ANOVA test.
Metabolic cages. VO2 (ml/h/kg) and energy expenditure to body weight (kcal/h/kg) were assessed via indirect calorimetry using the TSE Automated Phenotyping System PhenoMaster (TSE system, Chesterfield, Mo.). Mice were singly housed in their home cages in an enclosed environmental chamber (part of the TSE system) with controlled temperature and light/dark cycles (12 hours each; 6 AM-6 PM). […] Measurements of CO2 production and O2 consumption occurred using the attached gas analyzer to assess energy expenditure. In addition, physical activity in three dimensions was monitored via infrared beam breaks through frames mounted on the perimeter of the metabolic cages. Enrichment items were omitted to avoid insulation from sensors and infrared light beam path obstruction. Results are expressed as 12 hour-period values (light/dark; 10 values per mouse). Metabolic cage assays were conducted blinded to treatment groups.
2-NBDG uptake assay and glycemia/lactate monitoring. 2-NBDG uptake assay in live myofibers was conducted adapting previously reported conditions (Zou et al., 2005). FDB muscles were collected and carefully treated with collagenase type II and hand pipetting to liberate single myofibers, following reported procedures (Demonbreun and McNally, 2015). Myofibers from two FDB muscles were collected in 1 ml Ringer's solution (for 1 l, 7.2 g NaCl, 0.17 g CaCl2, 0.37 g KCl; pH, 7.4). 200 μl of myofiber suspension were dispensed per well of chambered coverglass (#155382; Thermo Fisher, Waltham, Mass.) and imaged as baseline condition for both transmitted light (1 ms integration) and green fluorescent channels (100 ms integration) at the Zeiss Axio Observer A1 microscope, using 20× short-range objective and the ZEN 2 software (version 2011; Zeiss, Jena, Germany). Immediately after baseline imaging, myofibers were supplemented with 2 mM glucose (#D8375-1 g; Millipore Sigma, St Louis, Mo.) and 50 μM 2-NBDG (#11046; Cayman Chemical, Ann Arbor, Mich.). For insulin-dependent uptake, insulin (#12585014; Thermo Fisher, Waltham, Mass.) was added to a final […] concentration. To control Glut1-/Glut4-dependent uptake, negative control wells were further supplemented with 10 μM cytochalasin B (#C6762; Millipore Sigma, St Louis, Mo.). Myofibers were incubated for 30 minutes in a 37° C./10% CO2 incubator, then washed twice in Ringer's solution and immediately imaged in fresh Ringers' solution, using the same integration and objective settings used for pre-incubation pictures. 2-NBDG uptake was quantitated as relative fluorescent units, calculated as intra-myofiber fluorescence after incubation subtracted of average baseline fluorescence. Fluorescence intensity was quantitated through serial analysis of acquired images (3 areas of approximately 85 μm^2 were analyzed for average fluorescence value per myofiber; >10 myofibers were analyzed per mouse) with ImageJ software (Schneider et al., 2012). All glucose uptake assays were conducted blinded to treatment groups.
Glucose was measured in blood (first drop from tail venipuncture) or serum (5 μl of 1:2 dilution) with an AimStrip Plus glucometer system (Germaine Laboratories, San Antonio, Tex.) and expressed as mg/dl values. Lactate was measured in blood (second drop from tail venipuncture) or serum (5 μl of 1:2 dilution) with a Lactate Plus reader (Nova Biomedical, Waltham, Mass.) and expressed as mM values. Fasting glycemia was measured in mice after 4 hours fasting (7 AM-11 AM). […]

[1] = WT mice on high-fat chow, weekly prednisone, 12 weeks

Which “ATP and phosphocreatine production of quadriceps ex vivo” value (10 mM glucose or 1 mM palmitate-BSA, normal and high-fat diet, weekly prednisone 12 weeks) does the source give for `C[C@]12C=CC(=O)C=C1CC[C@@H]1[C@@H]2C(=O)C[C@@]2(C)[C@H]1CC[C@]2(O)C(=O)CO` [prednisone, Prednisone] here?
The value was “higher levels”.

What about the “gain of body weight” value (WT mice on high-fat chow, once weekly prednisone 1 mg/kg i.p., 12 weeks, vs vehicle) of the same compound?
The value was “reduced”.

And the “accrual of whole-body fat mass and adipocyte mass in the ventral fat pad” value [1]?
The value was “reduced”.

And the “endpoint grip strength and running endurance” value [1]?
Its value is “significant improvement”.

And the “gain of hyperglycemia (fasting blood glucose over time)” value [1]?
The value was “reduced”.

What about the “retention of lean mass, myofiber mass and specific force” value [1] of the same compound?
Its value is “improving”.

And the “ex vivo uptake of 2-NBDG in freshly isolated myofibers” value (WT mice on high-fat chow, weekly prednisone, 12 weeks, absence and presence of insulin)?
The value was “improved”.

And the “body-wide glucose homeostasis (glucose and insulin tolerance tests)” value (WT mice on high-fat chow, weekly prednisone, 12 weeks, endpoint)?
Its value is “improved”.

What about the “oxidative capacity and energy expenditure in the active phase (metabolic cage)” value (normal or high-fat diet chow, weekly prednisone, 12 weeks) of the same compound?
The value was “increased”.

— patent US20220062299A1, “USE OF GLUCOCORTICOID STEROIDS IN PREVENTING AND TREATING CONDITIONS OF MUSCLE WASTING, AGING AND METABOLIC DISORDER” (NORTHWESTERN UNIVERSITY, priority 2018, published 2022)
